# Reference: patent EP4803511A1, “SMALL MOLECULE COMPOUND HAVING SULFONIC ACID OR SULFINIC ACID LACTONE STRUCTURE, COMPOSITION AND USE THEREOF” (Hangzhou Phecdamed Co., Ltd., priority 2023, dated 2025)
# What was measured:
# HaCaT cells = assay: ROS content / ROS scavenging rate in HaCaT after UVB radiation (DCFH-DA); assay type: cell-based, human; details: content 0.0025%; HaCaT cells after UVB radiation
# Description: Oxidative reactions such as respiration and metabolism in organisms generate reactive free radicals. Under normal bodily conditions, free radicals have a stable scavenging system, so that the free radical content of the body is kept at a relatively low concentration. Oxidative stress (OS) refers to an imbalance between oxidation and antioxidation in the body due to endogenous and/or exogenous stimuli, resulting in excessive free radical production. Excessive free radicals produce a series of negative effects in the body, including oxidative damage to biomolecules and further causing cell death and tissue damage, etc. In organisms, almost all ROS, except for trace amounts utilized by the body, should be promptly scavenged. Medium Wave Erythema Effect Ultraviolet (UVB) (280-319 nm) radiation damage is the most important factor leading to photoaging of the skin, primarily damaging keratinocytes (HaCaT), specifically manifested as the accumulation of photoproducts, increased ROS, and exacerbated oxidative damage, etc. Over long periods of evolution, organisms have developed a complete antioxidant system, maintaining a dynamic balance between the production and elimination of free radicals. This is an adaptive mechanism of organisms, and the main members include antioxidant enzymes, antioxidants, and proteins that separate transition metals, all of which can specifically limit oxidative damage to the body. Therefore, the antioxidant efficacy of a test compound can be evaluated by detecting the ROS scavenging rate in keratinocytes after UVB radiation.
# • 1) Cell inoculation: HaCaT cells were inoculated into a 96-well plate at 2 × 10^4/well, cultured in an incubator (37 °C, 5% CO2) for 12 hrs, and a control group (120 mJ/cm^2 + vehicle control), a low concentration group (120 mJ/cm^2 + low concentration compound), a medium concentration group (120 mJ/cm^2 + medium concentration compound), and a high concentration group (120 mJ/cm^2 + high concentration compound) were respectively provided. • 2) UVB modeling: The HaCaT cells were washed 3 times with D'Hanks before UVB radiation, 50 µL of D'Hanks was added into the wells, to make the cells to be immersed, and the control group was coated with tinfoil and placed in the dark. For the test groups, UVB modeling was performed on the group requiring radiation, respectively. • 3) Administration: DMEM medium containing different concentrations of compound were added to each test group for continued culture for 24 hrs. • 4) Transferring the ROS fluorescent probe: DCFH-DA was Diluted to a final concentration of 10 µmol/L using PBS at a dilution ratio of 1:1000. The culture medium in all wells except the bare cell wells was discarded. After washing three times with PBS, 200 µL of DCFH-DA working solution was added to each well, then incubated in a CO2 incubator for 30 min, and after incubation, the cells in each well were washed with PBS for 3 times. • 5) Fluorescence analysis. The 96-well plate to be tested was placed on the detection stage of the fluorescence microplate reader, with the […] set to 525 nm, the excitation light wavelength set to 488 nm, and the reading was analyzed.
# ROS scavenging rate (%) = (S(Modelcontrolgroup)−S(Samplegroup))/(S(Modelcontrolgroup)) × 100% [formula] wherein S is fluorescence intensity.
# [1] = Kinetic solubility in aqueous buffer; assay type: physicochemical; details: 2 hrs at 25 °C
# Protocol: Experimental Methods: 30 µL of the 10 mM DMSO stock solution of the compound to be test was placed in a solubility sample plate (duplicate), 970 µL of aqueous buffer solution was added to the plate, and the plate was sealed with a sealing membrane and shaken at 1100 rpm for 2 hrs at 25 °C. The sample in the solubility plate was transferred to a filter plate, and filtered to obtain a filtrate. 10 µL of the filtrate was transferred into 980 µL of methanol along with 10 µL of DMSO, and then the solution was diluted 10-fold with methanol:water (1:1), and the resulting sample was analyzed by LC-MS/MS to obtain Area (filtered). Separately, 10 mM of the DMSO stock solution of the compound to be test was diluted to 300 µM with DMSO. 10 µL of this 300 µM DMSO solution and 10 µL of aqueous buffer solution were added into 980 µL of methanol, and then diluted 10-fold with methanol:water (1:1), and the resulting sample was analyzed by LC-MS/MS to obtain Area (std). The kinetic solubility was calculated according to the following formula: Solubility(μM) = (Areafiltered × DFfiltered)/(Areastd × DFstd) × [std] × DFstd [formula] wherein DF is the dilution factor.
solubility kinetic at 2 h [1] [µM],SMILES,ROS scavenging rate (HaCaT cells) [%]
–,CN(C)C(=O)Oc1ccc2c(c1)OS(=O)(=O)c1cc(OC(=O)N(C)C)ccc1-2 [Compound I-13],35
–,CC(C)C(=O)Oc1ccc2c(c1)OS(=O)(=O)c1cc(OC(=O)C(C)C)ccc1-2 [Compound I-14],29
98.8,"O=c1oc2cc(O)ccc2c2ccc(O)cc12 [Urolithin A, reference compound]",–
